Values quoted from earlier work in publication PMC5618157, “The Role of Disulfide Bond Replacements in Analogues of the Tarantula Toxin ProTx-II and Their Effects on Inhibition of the Voltage-Gated Sodium Ion Channel Nav1.7” (Journal of the American Chemical Society, 2017).

Legend:
Nav1.7 = conditions: read-out: IC50 against Nav1.7
Excerpt: ProTx-II has been the subject of particular interest from researchers as a possible lead for the treatment of chronic nociceptive pain.[4] […] Nav1.7 has been implicated as a target for the treatment of chronic pain after loss-of-function mutations in the corresponding SCN9A gene left their carriers unable to feel pain, with seemingly no ...

mouse model (analgesia) = conditions: injections of ProTx-II
Excerpt: Despite these structural studies, much remains unknown about the mechanism of action of ProTx-II on Nav1.7. […] Instead, studies into the interaction of ProTx-II and HwTx-IV with hNav1.7 proposed that both peptides interact with the domain II voltage-sensing domain (VSD), with ProTx-II also trapping the domain IV VSD in the resting configuration.[38] Mutagenesis experiments on ProTx-II by Park and co-workers,[36] and investiga ...

## ProTx-II
Nav1.7
  IC50: 0.3 nM
Mouse model (analgesia)
  analgesia in a mouse model: failed to elicit analgesia
